Assay results published in BindingDB's records for patent US20250109139 (Shanghaitech University, 2025).

Target: D(2) dopamine receptor (Homo sapiens, UniProt P14416)
Assay: Radioligand Competition Binding Assay
Protocol: A 10 cm culture dish was used for transfection with […] of dopamine D2 receptors and 40 μL of polyethylenimine (PEI hereafter). […] A vacuum pump was used to suck off the culture medium, 3 mL of lysis buffer was added to each culture dish, and the cells were placed in a 4° C. cold room for 10 minutes. After the cells were detached, the cells were transferred to a 15 mL centrifuge tube and centrifuged at 1500 rpm for 5 minutes at 4° C., and the supernatant was discarded. The cell pellet was transferred to a tissue homogenizer, and 3 mL of lysis buffer was added and fully ground until the cells were broken. Then, cell suspension was equally aliquoted into several EP tubes, centrifuged at 12000 rpm for 5 minutes at 4° C., and the supernatant was discarded. […] First, a standard binding buffer was added to the cell membrane component containing the dopamine D2 receptors, and the cell membrane was disrupted and resuspended with an electric tissue homogenizer. 30 μL of membrane protein suspension was added to each well of a 96-well plate. […] Next, 30 μL of [3H]-Methylspiperone was added to each well of the 96-well plate. […] The machine readout value reflected the amount of [3H]-Methylspiperone bound on the membrane, and after further data processing, the affinity Ki values of different compounds for the dopamine D2 receptors were obtained.

D(2) dopamine receptor, sequence (P14416 whole entry): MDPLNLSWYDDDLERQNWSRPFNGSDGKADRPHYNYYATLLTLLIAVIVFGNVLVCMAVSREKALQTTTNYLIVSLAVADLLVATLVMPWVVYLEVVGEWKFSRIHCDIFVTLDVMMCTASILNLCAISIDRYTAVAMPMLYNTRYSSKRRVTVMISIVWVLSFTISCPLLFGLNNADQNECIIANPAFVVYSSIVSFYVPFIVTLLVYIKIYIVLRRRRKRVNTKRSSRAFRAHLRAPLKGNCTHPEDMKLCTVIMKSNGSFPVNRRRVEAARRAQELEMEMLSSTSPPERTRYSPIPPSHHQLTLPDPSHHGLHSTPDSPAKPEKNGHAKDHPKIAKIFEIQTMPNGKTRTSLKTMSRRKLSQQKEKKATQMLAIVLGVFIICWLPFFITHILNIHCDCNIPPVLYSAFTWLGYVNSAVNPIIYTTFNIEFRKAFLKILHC

For `CCOc1cccc2c3c(oc12)CN(CCCCc1ccc2ccc(=O)[nH]c2c1)CC3` [US20250109139, Compound I-A25], the Ki was 38 nM.
